“And” between values parts separate entries of the source, which are not always exact repeats. Equal values may be shown once.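 Step 1: Grow cells in 96-well plates. Step 2: Expose to compound for 48 hours at 5 concentrations. Step 3: Interpolate endpoints linearly; if unreached, use highest concentration. Here, GI50 denotes the concentration required for 50% inhibition of growth. TGI denotes the concentration required for complete inhibition of growth.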 Where a SMILES comes first, the peptide text is derived from it. The star is where a group is joined. Cbz = O=C(OCc1ccccc1)*; Boc = CC(C)(C)OC(=O)*; OSu = O=C1CCC(=O)N1O*; Bn = c1ccc(C*)cc1
Experiments:
Assay in all cases: inhibition of tumour cell growth, NCI panel, 48 h
[1] = system: COLO 205 colon
[2] = system: K-562 leukemia
[3] = system: HCT-15 colon
[4] = system: OVCAR-3 ovarian
[5] = system: HT29 colon
[6] = system: MOLT-4 leukemia
[7] = system: MDA-MB-435
[8] = system: RPMI-8226 leukemia
[9] = system: ACHN renal
[10] = system: OVCAR-4 ovarian

SMILES	TGI [1]	TGI [2] [µM]	TGI [3] [µM]	TGI [4]	TGI [5] [µM]	TGI [6] [µM]	TGI [7]	TGI [8] [µM]	TGI [9]	TGI [10] [µM]	GI50 [1]	GI50 [3]	GI50 [4]	GI50 [5]	GI50 [7]	GI50 [10] [µM]	GI50 [9] [nM]	GI50 [6] [nM]
CC[C@@]12CCC(=S)N(CCSc3ccccc3)[C@@H]1c1c(n(S(=O)(=O)c3ccc(OC)cc3)c3ccccc13)CC2	> 100 µM	> 100	> 100	> 100 µM	> 100	> 100	> 100 µM	> 100										
COc1ccc2c(c1)CC[C@@H]1C2CC[C@]2(C)C(=C=CP(=O)(O)O)CCC12 (stereo not given in full)	> 100 µM	> 100	> 100	> 100 µM	> 100		> 100 µM	> 100	> 100 µM	> 100								
O=S(=O)(O)c1cc(O)c(N=Nc2ccc3ccccc3c2O)c2ccccc12	> 100 µM	74.6	> 100	> 100 µM	72.3	97		> 100	> 100 µM	> 100								
c1ccc(-c2c(-c3[nH]c4ccccc4c3-c3ccccc3)[nH]c3ccccc23)cc1	3.53 µM	36.8	14.3	5.44 µM	> 100	13.3	14.9 µM	11.9	11.6 µM	8.78								
O=C(O)C1(C(O)c2ccccc2)SCCCS1 (stereo not given)		> 10	> 10	> 10 µM	> 10	> 10	> 10 µM		> 10 µM									
CSc1nc(C)c2c(n1)N(c1ccc(Cl)cc1)CC2	> 100 µM	> 100	> 100	> 100 µM	> 100	> 100	> 100 µM	> 100	> 100 µM	> 100								
COC(=O)C(=O)C(C(=O)C(=O)Nc1ccc(C)c(C)c1)c1nc2ccc([N+](=O)[O-])cc2[nH]c1=O (stereo not given)		> 100	> 100	> 100 µM	> 100	> 100	> 100 µM	> 100	> 100 µM	> 100								
CCc1cc2c(c3c1CCCC3=O)CC1(C2)Cc2cc(CC)c3c(c2C1)C(=O)CCC3	> 100 µM	> 100	> 100	> 100 µM	> 100	> 100	> 100 µM	> 100	> 100 µM	> 100								
CC(C)=CC(=O)c1c(C(=O)O)nc2ccccc2[n+]1[O-]	> 100 µM	> 100	> 100		> 100	> 100		> 100	> 100 µM	> 100								
CC[C@@]1(O)C(=O)OCc2c1cc1n(c2=O)Cc2c-1nc1ccccc1c2C=Nc1ccccc1N[C@@H]1c2cc3c(cc2[C@@H](c2cc(OC)c(O)c(OC)c2)[C@H]2C(=O)OC[C@@H]21)OCO3	24.8 µM and > 10.6 µM	> 100		10.9 µM and 1.81 µM	> 50		24.3 µM and > 50 µM	> 50	0.961 µM and 0.171 µM	> 62.6	8860 nM and 929 nM	880 nM and 190 nM	1460 nM and 337 nM	327 nM and 125 nM	358 nM and 450 nM	17.2		
Cc1ncc(CSC(=N)N)n1Cc1ccccc1	> 100 µM	> 100	> 100	> 100 µM	> 100		> 100 µM	83.2	> 100 µM	> 100								
N#Cc1c(N)nc(Sc2ccccc2N)c(C#N)c1-c1ccccc1	> 100 µM	> 100	> 100		> 100	> 100	97.3 µM	> 100	69.2 µM	> 100								
COc1cc2c(cc1OCCCOc1ccc(-c3cc4ccccc4c4ccccc34)cc1)N=C[C@@H]1CCCN1C2=O	2.44 µM	> 100	2.26	0.786 µM	2.11	0.432	1.31 µM		2.3 µM	2.21	1190 nM	896 nM	252 nM	899 nM	343 nM	0.815	1070	186
CCOC(=O)c1cc2c3c(cc(OC)c2[nH]1)N(C(=O)OCC)CC3	> 100 µM	> 100	> 100	> 100 µM	> 100	> 100	> 100 µM	> 100		> 100								
CC(C)(C)OC(=O)NC(Cc1ccc(OCc2ccccc2)cc1)C(=O)NC(CCCCNC(=O)OCc1ccccc1)C(=O)NC(CCCCNC(=O)OCc1ccccc1)C(=O)ON1C(=O)CCC1=O (stereo not given) (Boc-Tyr(Bn)-Lys(Cbz)-Lys(Cbz)-OSu; configuration not given here)	> 100 µM		> 100		> 100	> 100	> 100 µM	> 100	> 100 µM	> 100								
Cc1cc2c(cc1Cl)Sc1n[nH]c(=O)n1S2(=O)=O	> 100 µM	> 100	> 100	> 100 µM	> 100	> 100	> 100 µM		> 100 µM	> 100								
Cc1cc(C)n2c(nc3ccccc32)c1C#N	> 100 µM	> 100	> 100	> 100 µM	> 100	> 100	> 100 µM		> 100 µM	> 100								
Cc1ccc(NC(=O)C(=O)Cc2cccc[n+]2[O-])cc1C	> 100 µM	> 100	> 100	> 100 µM	> 100	> 100		> 100	> 100 µM	> 100								
O=C(NCc1ccccc1Cl)c1c(O)c2ccccc2[nH]c1=O	> 100 µM	> 100	> 100	> 100 µM	> 100	> 100	> 100 µM	> 100		23.2								
CCCCCCCc1ccc(-c2nnc(N=Nc3ccc(OCCCCC)cc3)s2)s1	> 100 µM		> 100	> 100 µM	> 100	> 100	> 100 µM	> 100	> 100 µM	> 100								
COc1ccc(C23OCC(Cc4cc(OC)c(OC)cc42)C3CO)cc1OC (stereo not given)	> 100 µM	> 100	> 100	> 100 µM		> 100	> 100 µM	> 100	> 100 µM	> 100								

From PubChem BioAssay (NCI)
